Results as given in PubChem BioAssay AID2060493 (Molecular Pharmacology Branch, DTP, NCI, 2025).
pIC50: −log10 of the molar value.

System: 616215-338-R-J1-PDC tumor spheroids, viability
Test: Anticancer human tumor 616215-338-R-J1-PDC patient-derived colon adenocarcinoma cell line growth inhibition [GQUAD]
Conditions: spheroids with HUVEC and MSC; for pIC50: curve of first compound; for viability, T/C: stronger effect = lower value
Summary of the method: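 Viability of tumor cells grown as complex spheroids with endothelial and stromal cells, exposed to drug combinations. Top concentration at or near clinical Cmax (else 10 microM), diluted in half-log increments.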

[1] = second compound 0.0316 µM, first compound 0.0316 µM
[2] = second compound 0.0316 µM, first compound 0.1 µM
[3] = second compound 0.0316 µM, first compound 0.316 µM
[4] = second compound 0.0316 µM, first compound 1 µM
[5] = second compound 0.0316 µM, first compound 3.16 µM
[6] = second compound 0.0316 µM, first compound 10 µM
[7] = second compound 0.1 µM, first compound 0.0316 µM
[8] = second compound 0.1 µM, first compound 0.1 µM
[9] = second compound 0.1 µM, first compound 0.316 µM
[10] = second compound 0.1 µM, first compound 1 µM
[11] = second compound 0.1 µM, first compound 3.16 µM
[12] = second compound 0.1 µM, first compound 10 µM
[13] = second compound 0.316 µM, first compound 0.0316 µM
[14] = second compound 0.316 µM, first compound 0.1 µM
[15] = second compound 0.316 µM, first compound 0.316 µM
[16] = second compound 0.316 µM, first compound 1 µM
[17] = second compound 0.316 µM, first compound 3.16 µM
[18] = second compound 0.316 µM, first compound 10 µM
[19] = second compound 1 µM, first compound 0.0316 µM
[20] = second compound 1 µM, first compound 0.1 µM
[21] = second compound 1 µM, first compound 0.316 µM
[22] = second compound 1 µM, first compound 1 µM
[23] = second compound 1 µM, first compound 3.16 µM
[24] = second compound 1 µM, first compound 10 µM
[25] = second compound 3.16 µM, first compound 0.0316 µM
[26] = second compound 3.16 µM, first compound 0.1 µM
[27] = second compound 3.16 µM, first compound 0.316 µM
[28] = second compound 3.16 µM, first compound 1 µM
[29] = second compound 3.16 µM, first compound 3.16 µM
[30] = second compound 3.16 µM, first compound 10 µM
[31] = second compound 10 µM, first compound 0.0316 µM
[32] = second compound 10 µM, first compound 0.1 µM
[33] = second compound 10 µM, first compound 0.316 µM
[34] = second compound 10 µM, first compound 1 µM
[35] = second compound 10 µM, first compound 3.16 µM
[36] = second compound 10 µM, first compound 10 µM
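Further: spheroids exposed to agents for 7 days before readout.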
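Wherever viability, T/C is given: percent viability relative to DMSO vehicle control wells taken as 100%.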

## C=CCn1c(=O)c2cnc(Nc3ccc(N4CCN(C)CC4)cc3)nc2n1-c1cccc(C(C)(C)O)n1 + Cc1[nH]c2ccc(F)cc2c1-c1nc2c3cccnc3c3ncccc3c2[nH]1
Second compound 0.0316 µM
  pIC50: 6.48
Second compound 0.1 µM
  pIC50: 6.45
Second compound 0.316 µM
  pIC50: 6.50
Second compound 1 µM
  pIC50: 6.47
Second compound 3.16 µM
  pIC50: 6.59
Second compound 10 µM
  pIC50: 6.64
[1]
  viability, T/C: 95.5%
[2]
  viability, T/C: 90.1%
[3]
  viability, T/C: 48.3%
[4]
  viability, T/C: 25.4%
[5]
  viability, T/C: 12.4%
[6]
  viability, T/C: 12.2%
[7]
  viability, T/C: 97.4%
[8]
  viability, T/C: 99.9%
[9]
  viability, T/C: 50.6%
[10]
  viability, T/C: 28.4%
[11]
  viability, T/C: 17.9%
[12]
  viability, T/C: 11.9%
[13]
  viability, T/C: 106%
[14]
  viability, T/C: 99.6%
[15]
  viability, T/C: 47.5%
[16]
  viability, T/C: 25.4%
[17]
  viability, T/C: 12.9%
[18]
  viability, T/C: 12.4%
[19]
  viability, T/C: 103%
[20]
  viability, T/C: 104%
[21]
  viability, T/C: 52%
[22]
  viability, T/C: 18.6%
[23]
  viability, T/C: 14.2%
[24]
  viability, T/C: 9.69%
[25]
  viability, T/C: 98.4%
[26]
  viability, T/C: 87.7%
[27]
  viability, T/C: 40.9%
[28]
  viability, T/C: 15.8%
[29]
  viability, T/C: 11.1%
[30]
  viability, T/C: 6.8%
[31]
  viability, T/C: 95.3%
[32]
  viability, T/C: 88.3%
[33]
  viability, T/C: 34%
[34]
  viability, T/C: 17.9%
[35]
  viability, T/C: 11.2%
[36]
  viability, T/C: 6.71%

## CC(C)(O)C1CCC(Nc2ccc3ncc(-c4cccc(C(F)(F)F)c4)n3n2)CC1 (stereo not given) + Cc1[nH]c2ccc(F)cc2c1-c1nc2c3cccnc3c3ncccc3c2[nH]1
Second compound 0.0316 µM
  pIC50: 6.21
Second compound 0.1 µM
  pIC50: 6.22
Second compound 0.316 µM
  pIC50: 6.23
Second compound 1 µM
  pIC50: 6.19
Second compound 3.16 µM
  pIC50: 6.23
Second compound 10 µM
  pIC50: 6.25
[1]
  viability, T/C: 99.1%
[2]
  viability, T/C: 103%
[3]
  viability, T/C: 103%
[4]
  viability, T/C: 11.2%
[5]
  viability, T/C: 0.5%
[6]
  viability, T/C: 1.09%
[7]
  viability, T/C: 93.7%
[8]
  viability, T/C: 109%
[9]
  viability, T/C: 94.3%
[10]
  viability, T/C: 13.8%
[11]
  viability, T/C: 0.24%
[12]
  viability, T/C: 2.5%
[13]
  viability, T/C: 92%
[14]
  viability, T/C: 97%
[15]
  viability, T/C: 97.6%
[16]
  viability, T/C: 11.7%
[17]
  viability, T/C: 2.23%
[18]
  viability, T/C: 1.14%
[19]
  viability, T/C: 97%
[20]
  viability, T/C: 89.9%
[21]
  viability, T/C: 91.6%
[22]
  viability, T/C: 24.3%
[23]
  viability, T/C: 0.55%
[24]
  viability, T/C: 1.33%
[25]
  viability, T/C: 98.8%
[26]
  viability, T/C: 103%
[27]
  viability, T/C: 95.2%
[28]
  viability, T/C: 10.4%
[29]
  viability, T/C: 0.45%
[30]
  viability, T/C: 0.48%
[31]
  viability, T/C: 90.1%
[32]
  viability, T/C: 94.4%
[33]
  viability, T/C: 93.2%
[34]
  viability, T/C: 8.43%
[35]
  viability, T/C: 0.77%
[36]
  viability, T/C: 0.56%

## COc1ncnc(C2CC2)c1-c1ncc2cnn(Cc3ccc(-c4nc(C(F)(F)F)cn4C(C)C)cc3)c2n1 + Cc1[nH]c2ccc(F)cc2c1-c1nc2c3cccnc3c3ncccc3c2[nH]1
Second compound 0.0316 µM
  pIC50: < 5.00
Second compound 0.1 µM
  pIC50: < 5.00
Second compound 0.316 µM
  pIC50: < 5.00
Second compound 1 µM
  pIC50: < 5.00
Second compound 3.16 µM
  pIC50: < 5.00
Second compound 10 µM
  pIC50: < 5.00
[1]
  viability, T/C: 109%
[2]
  viability, T/C: 98.5%
[3]
  viability, T/C: 106%
[4]
  viability, T/C: 91.9%
[5]
  viability, T/C: 106%
[6]
  viability, T/C: 101%
[7]
  viability, T/C: 108%
[8]
  viability, T/C: 93.7%
[9]
  viability, T/C: 96.1%
[10]
  viability, T/C: 98.2%
[11]
  viability, T/C: 100%
[12]
  viability, T/C: 105%
[13]
  viability, T/C: 106%
[14]
  viability, T/C: 96.3%
[15]
  viability, T/C: 96.5%
[16]
  viability, T/C: 99.8%
[17]
  viability, T/C: 103%
[18]
  viability, T/C: 107%
[19]
  viability, T/C: 100%
[20]
  viability, T/C: 97.9%
[21]
  viability, T/C: 96.5%
[22]
  viability, T/C: 101%
[23]
  viability, T/C: 108%
[24]
  viability, T/C: 99.8%
[25]
  viability, T/C: 101%
[26]
  viability, T/C: 104%
[27]
  viability, T/C: 94.7%
[28]
  viability, T/C: 105%
[29]
  viability, T/C: 109%
[30]
  viability, T/C: 104%
[31]
  viability, T/C: 97%
[32]
  viability, T/C: 90.1%
[33]
  viability, T/C: 98.4%
[34]
  viability, T/C: 98.4%
[35]
  viability, T/C: 98.7%
[36]
  viability, T/C: 96.3%

## Cc1[nH]c2ccccc2c1CCNCc1ccc(/C=C/C(=O)NO)cc1 + Cc1[nH]c2ccc(F)cc2c1-c1nc2c3cccnc3c3ncccc3c2[nH]1
Second compound 0.0316 µM
  pIC50: 6.84
Second compound 0.1 µM
  pIC50: 6.75
Second compound 0.316 µM
  pIC50: 6.79
Second compound 1 µM
  pIC50: 6.88
Second compound 3.16 µM
  pIC50: 6.88
Second compound 10 µM
  pIC50: 6.90
Second compound 0.0316 µM, first compound 0.000999 µM
  viability, T/C: 110%
Second compound 0.0316 µM, first compound 0.00316 µM
  viability, T/C: 98.6%
Second compound 0.0316 µM, first compound 0.00999 µM
  viability, T/C: 95.8%
[1]
  viability, T/C: 108%
Second compound 0.0316 µM, first compound 0.0999 µM
  viability, T/C: 67.6%
[3]
  viability, T/C: 13.2%
Second compound 0.1 µM, first compound 0.000999 µM
  viability, T/C: 93.6%
Second compound 0.1 µM, first compound 0.00316 µM
  viability, T/C: 96.6%
Second compound 0.1 µM, first compound 0.00999 µM
  viability, T/C: 94.4%
[7]
  viability, T/C: 97%
Second compound 0.1 µM, first compound 0.0999 µM
  viability, T/C: 89.6%
[9]
  viability, T/C: 10.9%
Second compound 0.316 µM, first compound 0.000999 µM
  viability, T/C: 99.5%
Second compound 0.316 µM, first compound 0.00316 µM
  viability, T/C: 109%
Second compound 0.316 µM, first compound 0.00999 µM
  viability, T/C: 104%
[13]
  viability, T/C: 97.9%
Second compound 0.316 µM, first compound 0.0999 µM
  viability, T/C: 79.8%
[15]
  viability, T/C: 9.21%
Second compound 1 µM, first compound 0.000999 µM
  viability, T/C: 102%
Second compound 1 µM, first compound 0.00316 µM
  viability, T/C: 98.5%
Second compound 1 µM, first compound 0.00999 µM
  viability, T/C: 93.1%
[19]
  viability, T/C: 101%
Second compound 1 µM, first compound 0.0999 µM
  viability, T/C: 62%
[21]
  viability, T/C: 10.9%
Second compound 3.16 µM, first compound 0.000999 µM
  viability, T/C: 98%
Second compound 3.16 µM, first compound 0.00316 µM
  viability, T/C: 92.6%
Second compound 3.16 µM, first compound 0.00999 µM
  viability, T/C: 100%
[25]
  viability, T/C: 94%
Second compound 3.16 µM, first compound 0.0999 µM
  viability, T/C: 62.7%
[27]
  viability, T/C: 10.8%
Second compound 10 µM, first compound 0.000999 µM
  viability, T/C: 99.7%
Second compound 10 µM, first compound 0.00316 µM
  viability, T/C: 99.5%
Second compound 10 µM, first compound 0.00999 µM
  viability, T/C: 103%
[31]
  viability, T/C: 95.1%
Second compound 10 µM, first compound 0.0999 µM
  viability, T/C: 59.9%
[33]
  viability, T/C: 8.56%

## O=C(NO)c1cnc(N2CCN(S(=O)(=O)c3ccc4ccccc4c3)CC2)nc1 + Cc1[nH]c2ccc(F)cc2c1-c1nc2c3cccnc3c3ncccc3c2[nH]1
Second compound 0.0316 µM
  pIC50: 6.39
Second compound 0.1 µM
  pIC50: 6.46
Second compound 0.316 µM
  pIC50: 6.33
Second compound 1 µM
  pIC50: 6.43
Second compound 3.16 µM
  pIC50: 6.49
Second compound 10 µM
  pIC50: 6.37
[1]
  viability, T/C: 96.2%
[2]
  viability, T/C: 94%
[3]
  viability, T/C: 62%
[4]
  viability, T/C: 6.64%
[5]
  viability, T/C: 0.1%
[6]
  viability, T/C: 0.12%
[7]
  viability, T/C: 98.6%
[8]
  viability, T/C: 94.8%
[9]
  viability, T/C: 53.8%
[10]
  viability, T/C: 1.07%
[11]
  viability, T/C: 0.04%
[12]
  viability, T/C: 0.07%
[13]
  viability, T/C: 117%
[14]
  viability, T/C: 110%
[15]
  viability, T/C: 74.5%
[16]
  viability, T/C: 1.02%
[17]
  viability, T/C: 0.02%
[18]
  viability, T/C: 0.05%
[19]
  viability, T/C: 103%
[20]
  viability, T/C: 94.6%
[21]
  viability, T/C: 57.6%
[22]
  viability, T/C: 4.76%
[23]
  viability, T/C: 0.03%
[24]
  viability, T/C: 0.06%
[25]
  viability, T/C: 104%
[26]
  viability, T/C: 96.9%
[27]
  viability, T/C: 51.4%
[28]
  viability, T/C: 2.81%
[29]
  viability, T/C: 0.06%
[30]
  viability, T/C: 0.08%
[31]
  viability, T/C: 103%
[32]
  viability, T/C: 94.6%
[33]
  viability, T/C: 65.7%
[34]
  viability, T/C: 3.03%
[35]
  viability, T/C: 0.15%
[36]
  viability, T/C: 0.63%
